Measurements reported in patent US10377791B2, “Therapeutically active estratrienthiazole derivatives as inhibitors of 17 B-hydroxysteroid dehydrogenase, type 1” (FORENDO PHARMA LTD, priority 2013, dated 2019).
Several values for one entry are separate records, joined by “and”; a condition that tells them apart may be missing. Identical values can stand only once. Counter-ions that a name gives are not always drawn. Like-named read-outs stand apart in the source and are kept apart here.

How the values were obtained:
[1] = biological target: T1, recombinant human 17β-HSD1 (Homo sapiens, UniProt P14061); experiment: Inhibition of recombinant human 17β-HSD1; format: biochemical; conditions: for inhibition at 1 µM: read-out: 17β-HDS1 Inhibition % at 1 μM
T1 construct: made in house; host or cells: Sd9 (Sf9) insect cells, baculovirus (Bac to Bac Expression System)
T1 sequence (P14061 1-328): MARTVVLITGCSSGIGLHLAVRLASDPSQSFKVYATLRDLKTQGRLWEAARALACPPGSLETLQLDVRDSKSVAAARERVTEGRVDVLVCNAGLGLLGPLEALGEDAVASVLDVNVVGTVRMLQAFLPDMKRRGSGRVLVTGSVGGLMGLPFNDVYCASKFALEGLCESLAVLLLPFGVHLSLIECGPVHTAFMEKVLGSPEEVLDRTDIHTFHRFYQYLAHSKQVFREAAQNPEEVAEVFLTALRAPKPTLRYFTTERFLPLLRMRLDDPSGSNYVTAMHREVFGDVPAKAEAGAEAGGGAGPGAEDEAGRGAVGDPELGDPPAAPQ
Protocol: Recombinant baculovirus was generated by the “Bac to Bac Expression System” (Invitrogen). Recombinant bacmid was transfected to Sd9 insect cells using “Cellfectin Reagent” (Invitrogen). 60 h later cells were harvested; the microsomal fraction was isolated as described by Puranen, T. J., Poutanen, M. H., Peltoketo, H. E., Vihko, P. T. and Vihko, R. K. (1994) Site-directed mutagenesis of the putative active site of human 17 β-hydroxysteroid dehydrogenase type 1. Biochem. J. 304: 289-293. Aliquots were stored frozen until determination of enzymatic activity.
Recombinant protein (1 μg/ml) was incubated in 20 mM KH2PO4 pH 7.4 with 30 nM estrone (including 800 000 cpm/ml of ^3H-estrone) and 1 mM NADPH for 30 min at RT, in the presence of the potential inhibitor at concentrations 1 μM or 0.1 μM. Inhibitor stock solutions were prepared in DMSO. Final concentration of DMSO was adjusted to 1% in all samples. The enzyme reaction was stopped by addition of 10% trichloroacetic acid (final concentration). Samples were centrifuged in a microtiter plate at 4000 rpm for 10 min. Supernatants were applied to reverse phase HPLC on a Waters Symmetry C18 column, equipped with a Waters Sentry Guard column. Isocratic HPLC runs were performed at RT at a flow rate of 1 ml/min in acetonitrile:water 48:52 as running solvent. Radioactivity was monitored in the eluate by a Packard Flow Scintillation Analyzer. Total radioactivity for estrone and estradiol were determined in each sample and percent conversion of estrone to estradiol was calculated according to the following formula:
(§1) [formula] Percent inhibition was calculated flowingly: % inhibition=100−% conversion

[2] = biological target: T2, recombinant human 17β-HSD2 (Homo sapiens, UniProt P37059); experiment: Inhibition of recombinant human 17β-HSD2; format: biochemical; conditions: for inhibition at 1 µM: read-out: 17β-HSD2 Inhibition % at 1 μM
T2 construct: made in house; host or cells: Sd9 (Sf9) insect cells, baculovirus (Bac to Bac Expression System)
T2 sequence (P37059 1-387): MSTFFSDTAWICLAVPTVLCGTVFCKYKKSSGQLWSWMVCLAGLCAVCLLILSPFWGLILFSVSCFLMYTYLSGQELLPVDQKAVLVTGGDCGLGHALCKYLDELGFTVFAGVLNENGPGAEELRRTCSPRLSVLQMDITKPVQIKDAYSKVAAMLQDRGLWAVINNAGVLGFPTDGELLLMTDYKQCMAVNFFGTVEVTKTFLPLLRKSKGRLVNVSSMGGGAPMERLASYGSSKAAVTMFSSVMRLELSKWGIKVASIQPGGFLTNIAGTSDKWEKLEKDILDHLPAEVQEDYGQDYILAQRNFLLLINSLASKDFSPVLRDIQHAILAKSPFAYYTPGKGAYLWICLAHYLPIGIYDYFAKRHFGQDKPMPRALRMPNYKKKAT
Protocol: Similarly to 17β-HSD1 the Recombinant baculovirus was generated by the “Bac to Bac Expression System” (Invitrogen). Recombinant bacmid was transfected to Sd9 insect cells using “Cellfectin Reagent” (Invitrogen). 60 h later cells were harvested and supernatant were fractionated by the following protocol: • cells were dissolved into 40 ml of A-buffer (40 mM TRIS, pH8.0, 20% glycerol, 20 μM NAD, 0.4 mM PMSF, 150 mM NaCl, 0.5% dodecyl-β-maltoside+protease inhibitor cocktail) • cells were sonicated • lysate was incubated on ice for 15 min • lysate was centrifuged 5000 rpm 15 min, +4° C. • centrifugation of the supernatant 180 000 g 30 min, +4° C. • pellet was dissolved into 8 ml of A-buffer • not resuspended material was removed by centrifugation 5000 rpm 15 min, +4° C. • the clear supernatant was divided into 100 μl aliquots and were stored frozen until determination of enzymatic activity.
The amount of 17β-HSD2 was analysed by immunoblotting and total protein concentration of each extract batch was determined.
Recombinant protein (4 μg/ml) was incubated in 20 mM KH2PO4 pH 8.5 with 50 nM estradiol (including 800 000 cpm/ml of ^3H-estradiol) and 1 mM NADH for 30 min at RT, in the presence of the potential inhibitor at concentrations 1 μM or 0.1 μM. Inhibitor stock solutions were prepared in DMSO. Final concentration of DMSO was adjusted to 1% in all samples. The enzyme reaction was stopped by addition of 10% trichloroacetic acid (final concentration). Samples were centrifuged in a microtiter plate at 4000 rpm for 10 min. Supernatants were applied to reverse phase HPLC on a Waters Symmetry C18 column, equipped with a Waters Sentry Guard column. Isocratic HPLC runs were performed at RT at a flow rate of 1 ml/min in acetonitrile:water 48:52 as running solvent. Radioactivity was monitored in the eluate by a Packard Flow Scintillation Analyzer. Total radioactivity for estrone and estradiol were determined in each sample and percent conversion of estradiol to estrone was calculated according to the following formula:
as §1

[3] = inhibitor at 1 μM, 30 nM estrone, 1 mM NADPH, 30 min at RT
[4] = inhibitor at 1 μM, 50 nM estradiol, 1 mM NADH, 30 min at RT

| Compound | inhibition at 1 µM [1, 3] [%] | inhibition at 1 µM [2, 4] [%] | further results |
| --- | --- | --- | --- |
| CC(=O)Oc1ccc2c(c1)CCC1C2CC[C@]2(C)C(=O)C[C@@H](CCC(=O)Nc3ncc(C)s3)C12 (stereo partly drawn) [Compound 1, Acetic acid (13S,15R)-13-methyl-15-[2-(5-methylthiazol-2-ylcarbamoyl)-ethyl]-17-oxo-7,8,9,11,12,13,14,15,16,17-decahydro-6H-cyclopenta[a]phenanthren-3-yl ester] | 92 | 13 | – |
| Cc1cnc(NC(=O)CC[C@@H]2CC(=O)[C@@]3(C)CCC4c5ccc(OS(N)(=O)=O)cc5CCC4C23)s1 (stereo partly drawn) [Compound 4, Sulphamic acid (13S,15R)-13-methyl-15-[2-(5-methylthiazol-2-ylcarbamoyl)-ethyl]-17-oxo-7,8,9,11,12,13,14,15,16,17-decahydro-6H-cyclopenta[a]phenanthren-3-yl ester] | 82 | 3 | – |
| Cc1cnc(NC(=O)CC[C@@H]2CC(=O)[C@@]3(C)CCC4c5ccc(OP(=O)(O)O)cc5CCC4C23)s1 (stereo partly drawn) [Compound 7, Phosphoric acid mono-{(13S,15R)-13-methyl-15-[2-(5-methylthiazol-2-ylcarbamoyl)-ethyl]-17-oxo-7,8,9,11,12,13,14,15,16,17-decahydro-6H-cyclopenta[a]phenanthren-3-yl} ester] | 80 | – | 17β-HSD2 Inhibition % at 1 μM [2, 4]: 3% |
| Cc1cnc(NC(=O)CC[C@@H]2CC(=O)[C@@]3(C)CCC4c5ccc(OP(=O)([O-])[O-])cc5CCC4C23)s1.[Na+].[Na+] (stereo partly drawn) [Compound 8, Phosphoric acid mono-{(13S,15R)-13-methyl-15-[2-(5-methylthiazol-2-ylcarbamoyl)-ethyl]-17-oxo-7,8,9,11,12,13,14,15,16,17-decahydro-6H-cyclopenta[a]phenanthren-3-yl} ester disodium salt] | – | – | 17β-HDS1 Inhibition % at 1 μM [1, 3]: 81%; 17β-HSD2 Inhibition % at 1 μM [2, 4]: 0% |
| Cc1cnc(NC(=O)CC[C@@H]2CC(=O)[C@@]3(C)CCC4c5ccc(OC(=O)CCC(=O)O)cc5CCC4C23)s1 (stereo partly drawn) [Compound 10, Succinic acid mono-{(13S,15R)-13-methyl-15-[2-(5-methylthiazol-2-ylcarbamoyl)-ethyl]-17-oxo-7,8,9,11,12,13,14,15,16,17-decahydro-6H-cyclopenta[a]phenanthren-3-yl} ester sodium salt] | 98 | 1 | – |
| CC(=O)NCC(=O)Oc1ccc2c(c1)CCC1C2CC[C@]2(C)C(=O)C[C@@H](CCC(=O)Nc3ncc(C)s3)C12 (stereo partly drawn) [Compound 11, Acetylamino-acetic acid (13S,15R)-13-methyl-15-[2-(5-methylthiazol-2-ylcarbamoyl)-ethyl]-17-oxo-7,8,9,11,12,13,14,15,16,17-decahydro-6H-cyclopenta[a]phenanthren-3-yl ester] | 87 | – | 17β-HDS1 Inhibition % at 1 μM [1, 3]: 88%; 17β-HSD2 Inhibition % at 1 μM [2, 4]: 0% and 2% |
| Cc1cnc(NC(=O)CC[C@@H]2CC(=O)[C@@]3(C)CCC4c5ccc(OC(=O)CNC(=O)OC(C)(C)C)cc5CCC4C23)s1 (stereo partly drawn) [Compound 15, tert-Butoxycarbonylamino-acetic acid (13S,15R)-13-methyl-15-[2-(5-methylthiazol-2-ylcarbamoyl)-ethyl]-17-oxo-7,8,9,11,12,13,14,15,16,17-decahydro-6H-cyclopenta[a]phenanthren-3-yl ester] | 66 | 0 | – |
| Cc1cnc(NC(=O)CC[C@@H]2CC(=O)[C@@]3(C)CCC4c5ccc(OC(=O)CN)cc5CCC4C23)s1 (stereo partly drawn) [Compound 16, Amino-acetic acid (13S,15R)-13-methyl-15-[2-(5-methylthiazol-2-ylcarbamoyl)-ethyl]-17-oxo-7,8,9,11,12,13,14,15,16,17-decahydro-6H-cyclopenta[a]phenanthren-3-yl ester] | 93 | 0 | – |
| CC(=O)Oc1ccccc1C(=O)Oc1ccc2c(c1)CCC1C2CC[C@]2(C)C(=O)C[C@@H](CCC(=O)Nc3ncc(C)s3)C12 (stereo partly drawn) [Compound 19, 2-Acetoxy-benzoic acid (13S,15R)-13-methyl-15-[2-(5-methylthiazol-2-ylcarbamoyl)-ethyl]-17-oxo-7,8,9,11,12,13,14,15,16,17-decahydro-6H-cyclopenta[a]phenanthren-3-yl ester] | 58 | 0 | – |
| CCOC(=O)Oc1ccc2c(c1)CCC1C2CC[C@]2(C)C(=O)C[C@@H](CCC(=O)Nc3ncc(C)s3)C12 (stereo partly drawn) [Compound 20, Ethyl ((13S,15R)-13-methyl-15-(3-((5-methylthiazol-2-yl)amino)-3-oxopropyl)-17-oxo-7,8,9,11,12,13,14,15,16,17-decahydro-6H-cyclopenta[a]phenanthren-3-yl) carbonate] | 52 | 0 | – |
| Cc1cnc(NC(=O)CC[C@@H]2CC(=O)[C@@]3(C)CCC4c5ccc(OS(=O)(=O)N(C)C)cc5CCC4C23)s1 (stereo partly drawn) [Compound 23, Dimethyl-sulphamic acid (13S,15R)-13-methyl-15-[2-(5-methylthiazol-2-ylcarbamoyl)-ethyl]-17-oxo-7,8,9,11,12,13,14,15,16,17-decahydro-6H-cyclopenta[a]phenanthren-3-yl ester] | 74 | 6 | – |
| Cc1cnc(NC(=O)CC[C@@H]2CC(=O)[C@@]3(C)CCC4c5ccc(OC(=O)N(C)C)cc5CCC4C23)s1 (stereo partly drawn) [Compound 25, Dimethyl-carbamic acid (13S,15R)-13-methyl-15-[2-(5-methylthiazol-2-ylcarbamoyl)-ethyl]-17-oxo-7,8,9,11,12,13,14,15,16,17-decahydro-6H-cyclopenta[a]phenanthren-3-yl ester] | – | – | inhibition at 1 µM [1]: 52%; inhibition at 1 µM [2]: 6% |
| Cc1cnc(NC(=O)CC[C@@H]2CC(=O)[C@@]3(C)CCC4c5ccc(OC(=O)CN(C)C)cc5CCC4C23)s1 (stereo partly drawn) [Compound 26, Dimethylamino-acetic acid (13S,15R)-13-methyl-15-[2-(5-methylthiazol-2-ylcarbamoyl)-ethyl]-17-oxo-7,8,9,11,12,13,14,15,16,17-decahydro-6H-cyclopenta[a]phenanthren-3-yl ester] | 96 | 6 | – |
